The structures appear in SMILES notation. Where “and” joins values, the source holds several entries; their conditions need not be identical. Equal entries are not always repeated. Inconclusive results are not listed. Where a SMILES comes first, the peptide text is derived from it. [ ]: non-standard residue; d: D form. The star is where a group is joined. ξ: configuration not given here. ξAsp(βξ-Me) = CC(C(=O)O)C(N)C(=O)O; X4 = CC(N*)C1NC(=O)C2CCCCN2C1=O; ξAbu(3ξ-NH2) = CC(N)C(N)C(=O)O; X3 = CCC(C)CCC/C=C/CC(=O)*

The subject of this experiment is BDF1 mice, s.c. Lewis lung carcinoma, T/C %. The experiment can be described thus: NCI In Vivo Anticancer Drug Screen. Data for tumor model Lewis Lung Carcinoma (subcutaneous) in B6D2F1 (BDF1) mice. The protocol:
The antitumor activity of compounds was measured in mice bearing transplantable tumors. Survival or tumor size were measured and the results are expressed as the measurement made in the treated group (T) divided by the measurement made in the vehicle treated control group (C). The tumor model used in this assay is Lewis Lung Carcinoma (subcutaneous) in B6D2F1 (BDF1) mice

Where [1] appears, read: endpoint: mean tumor weight, dose: 300.0 mg/kg/injection, schedule: Q01DX011 (ip), vehicle: other, higher = larger tumour.
Setting [2] is: endpoint: median survival time, dose: 12.5 mg/kg/injection, schedule: Q01DX009 (ip), vehicle: Klucel (hydroxypropylcellulose) (HPC), higher = longer survival.
[3] abbreviates: endpoint: median survival time, dose: 25.0 mg/kg/injection, schedule: Q01DX009 (ip), vehicle: Klucel (hydroxypropylcellulose) (HPC), higher = longer survival.
Where [4] appears, read: endpoint: median survival time, dose: 50.0 mg/kg/injection, schedule: Q01DX009 (ip), vehicle: Klucel (hydroxypropylcellulose) (HPC), higher = longer survival.
Setting [5] is: endpoint: mean tumor weight, dose: 25.0 mg/kg/injection, schedule: Q01DX011 (sc), vehicle: steriod suspending solution, higher = larger tumour.
Setting [6] is: endpoint: median survival time, dose: 6.25 mg/kg/injection, schedule: Q01DX009 (ip), vehicle: Klucel (hydroxypropylcellulose) (HPC), higher = longer survival.

Consider `O=S(=O)(Cl)c1cc(Cl)c(Cl)cc1Cl`, for which the T/C (endpoint: mean tumor weight, dose: 133.0 mg/kg/injection, schedule: Q01DX011 (ip), vehicle: other, higher = larger tumour) is 71 % of control; the T/C under setting [1] is 83 % of control; the T/C (endpoint: mean tumor weight, dose: 450.0 mg/kg/injection, schedule: Q01DX011 (ip), vehicle: other, higher = larger tumour) was 28 % of control and 41 % of control; the T/C (endpoint: mean tumor weight, dose: 600.0 mg/kg/injection, schedule: Q01DX011 (ip), vehicle: other, higher = larger tumour) was 75 % of control.
In the case of `CCC(C)CCC/C=C/CC(=O)NC(CC(=O)O)C(=O)NC(C(=O)NC(CC(=O)O)C(=O)NCC(=O)NC(CC(=O)O)C(=O)NCC(=O)NC(C(=O)NC(C(=O)N1CCCC1C(=O)NC(C)C1NC(=O)C2CCCCN2C1=O)C(C)C)C(C)N)C(C)C(=O)O` (stereo not drawn) (X3-D[ξAsp(βξ-Me)]DGDG[ξAbu(3ξ-NH2)]VP-X4; configuration not given here), the T/C runs as follows: (endpoint: median survival time, dose: 100.0 mg/kg/injection, schedule: Q01DX009 (ip), vehicle: saline + alcohol, higher = longer survival) 124 % of control; (endpoint: median survival time, dose: 200.0 mg/kg/injection, schedule: Q01DX009 (ip), vehicle: saline + alcohol, higher = longer survival) 99 % of control.
Regarding `COc1cc(NS(C)(=O)=O)ccc1Nc1c2cccc(C)c2nc2c(C)cccc12`, the T/C is 88 % of control (endpoint: median survival time, dose: 6.25 mg/kg/injection, schedule: Q01DX011 (ip), vehicle: saline, higher = longer survival); 113 % of control (endpoint: median survival time, dose: 12.5 mg/kg/injection, schedule: Q01DX011 (ip), vehicle: saline, higher = longer survival); 579 % of control (endpoint: median tumor weight (est.), dose: 25.0 mg/kg/injection, schedule: Q01DX011 (ip), vehicle: saline, higher = larger tumour).
`OC1CC2CCC(C1)N2CCCN1c2ccccc2Sc2ccc(Cl)cc21` (configuration not stated): the T/C is 95 % of control under setting [2], 96 % of control under setting [3] and 99 % of control under setting [4].
As to `COc1c(OC)c(O)c2c(=O)cc(-c3ccc(O)cc3)oc2c1OC`, the T/C under setting [5] is 100 % of control; the T/C (endpoint: mean tumor weight, dose: 50.0 mg/kg/injection, schedule: Q01DX011 (sc), vehicle: steriod suspending solution, higher = larger tumour) is 81 % of control; the T/C (endpoint: mean tumor weight, dose: 100.0 mg/kg/injection, schedule: Q01DX011 (sc), vehicle: steriod suspending solution, higher = larger tumour) was 85 % of control; the T/C (endpoint: mean tumor weight, dose: 200.0 mg/kg/injection, schedule: Q01DX011 (sc), vehicle: steriod suspending solution, higher = larger tumour) was 68 % of control.
`CCN(CC)CCNc1ccc([N+](=O)[O-])c2sc3ccccc3c(=O)c12`: the T/C runs as follows: (endpoint: mean tumor weight, dose: 12.5 mg/kg/injection, schedule: Q01DX011 (ip), vehicle: other, higher = larger tumour) 88 % of control; (endpoint: mean tumor weight, dose: 25.0 mg/kg/injection, schedule: Q01DX011 (ip), vehicle: other, higher = larger tumour) 102 % of control; (endpoint: mean tumor weight, dose: 50.0 mg/kg/injection, schedule: Q01DX011 (ip), vehicle: other, higher = larger tumour) 84 % of control.
`CSc1ccc(NC(=O)N(CCCl)N=O)cc1`: the T/C under setting [6] was 115 % of control, the T/C under setting [2] is 90 % of control, the T/C under setting [3] is 106 % of control and the T/C under setting [4] is 103 % of control.
Take `Cc1ccc(NC(=O)N(CCCl)N=O)cc1C`: the T/C runs as follows: (endpoint: median survival time, dose: 3.12 mg/kg/injection, schedule: Q01DX009 (ip), vehicle: Klucel (hydroxypropylcellulose) (HPC), higher = longer survival) 112 % of control; under setting [6], 87 % of control.
On to `CCCCSc1nc(N)nc2c1ncn2CC(C)CC` (configuration not stated), for which the T/C (endpoint: mean tumor weight, dose: 75.0 mg/kg/injection, schedule: Q01DX011 (ip), vehicle: other, higher = larger tumour) is 103 % of control; the T/C (endpoint: mean tumor weight, dose: 150.0 mg/kg/injection, schedule: Q01DX011 (ip), vehicle: other, higher = larger tumour) is 50 % of control; the T/C under setting [1] is 53 % of control.
For `CC(=O)OC/C=C(C)/C=C/C=C(C)/C=C/C1=C(C)CCCC1(C)C`, the T/C (endpoint: median survival time, dose: 200.0 mg/kg/injection, schedule: Q01DX005 (ip), vehicle: saline with Tween-80, higher = longer survival) was 100 % of control.
As to `Oc1c(Cl)cc(Cl)cc1/C=N/NC(=S)Nc1cc(C(F)(F)F)cc(C(F)(F)F)c1`, the T/C (endpoint: median survival time, dose: 3.13 mg/kg/injection, schedule: Q01DX009 (ip), vehicle: olive oil, sesame oil, peanut oil, higher = longer survival) was 104 % of control and the T/C (endpoint: median survival time, dose: 12.5 mg/kg/injection, schedule: Q01DX009 (ip), vehicle: olive oil, sesame oil, peanut oil, higher = longer survival) was 90 % of control.
For the compound `[N-]=[N+]=CC(=O)CCC(N)C(=O)O` (configuration not stated), the T/C by setting is: (endpoint: median survival time, dose: 0.1 mg/kg/injection, schedule: Q01DX009 (ip), vehicle: saline, higher = longer survival) 121 % of control; (endpoint: median survival time, dose: 0.2 mg/kg/injection, schedule: Q01DX009 (ip), vehicle: saline, higher = longer survival) 110 % of control; (endpoint: median survival time, dose: 94.0 mg/kg/injection, schedule: Q01DX001 (ip), vehicle: saline, higher = longer survival) 120 % of control; (endpoint: median survival time, dose: 210.0 mg/kg/injection, schedule: Q01DX001 (ip), vehicle: saline, higher = longer survival) 107 % of control.
Turning to `COc1cc([C@@H]2c3cc4c(cc3[C@H](O)[C@H]3COC(=O)[C@H]23)OCO4)cc(OC)c1OC`, the T/C by setting is: (endpoint: mean tumor weight, dose: 1.0 mg/kg/injection, schedule: Q01DX011 (ip), vehicle: carboxymethylcellulose (CMC), higher = larger tumour) 84 % of control; (endpoint: mean tumor weight, dose: 2.0 mg/kg/injection, schedule: Q01DX011 (ip), vehicle: carboxymethylcellulose (CMC), higher = larger tumour) 36 % of control.
Consider `CCCNc1ncnc2c1cnn2C`, for which the T/C (endpoint: mean tumor weight, dose: 3.12 mg/kg/injection, schedule: Q01DX011 (ip), vehicle: saline, higher = larger tumour) is 95 % of control; the T/C (endpoint: mean tumor weight, dose: 6.25 mg/kg/injection, schedule: Q01DX011 (ip), vehicle: saline, higher = larger tumour) was 89 % of control; the T/C (endpoint: mean tumor weight, dose: 12.5 mg/kg/injection, schedule: Q01DX011 (ip), vehicle: saline, higher = larger tumour) was 65 % of control; the T/C (endpoint: mean tumor weight, dose: 25.0 mg/kg/injection, schedule: Q01DX011 (ip), vehicle: saline, higher = larger tumour) is 28 % of control.
On to `N[C@H](C(=O)O)[C@@H]1CC(Cl)=NO1`, for which the T/C reads like this: (endpoint: median survival time, dose: 2.5 mg/kg/injection, schedule: Q01DX005 (ip), vehicle: saline, higher = longer survival) 92 % of control; (endpoint: median survival time, dose: 5.0 mg/kg/injection, schedule: Q01DX005 (ip), vehicle: saline, higher = longer survival) 67 % of control; (endpoint: median survival time, dose: 10.0 mg/kg/injection, schedule: Q01DX005 (ip), vehicle: saline, higher = longer survival) 111 % of control; (endpoint: median survival time, dose: 20.0 mg/kg/injection, schedule: Q01DX005 (ip), vehicle: saline, higher = longer survival) 62 % of control; (endpoint: median survival time, dose: 25.9 mg/kg/injection, schedule: Q04DX002 (ip), vehicle: saline, higher = longer survival) 114 % of control and 121 % of control; (endpoint: median survival time, dose: 43.2 mg/kg/injection, schedule: Q04DX002 (ip), vehicle: saline, higher = longer survival) 111 % of control and 112 % of control. Besides, the T/C was 106 % of control and 107 % of control (endpoint: median survival time, dose: 72.0 mg/kg/injection, schedule: Q04DX002 (ip), vehicle: saline, higher = longer survival); 100 % of control and 102 % of control (endpoint: median survival time, dose: 200.0 mg/kg/injection, schedule: Q04DX002 (ip), vehicle: saline, higher = longer survival); 92 % of control (endpoint: median survival time, dose: 2.5 ml/mouse/injection, schedule: Q01DX005 (ip), vehicle: saline, higher = longer survival); 68 % of control (endpoint: median survival time, dose: 5.0 ml/mouse/injection, schedule: Q01DX005 (ip), vehicle: saline, higher = longer survival); 108 % of control (endpoint: median survival time, dose: 10.0 ml/mouse/injection, schedule: Q01DX005 (ip), vehicle: saline, higher = longer survival).
Turning to `C[C@]12CCC(=O)C=C1CC[C@@H]1[C@@H]2[C@@H](O)C[C@@]2(C)[C@H]1CC[C@]2(O)C(=O)CF`, the T/C is 70 % of control (endpoint: mean tumor weight, dose: 3.13 mg/kg/injection, schedule: Q01DX011 (sc), vehicle: steriod suspending solution, higher = larger tumour); 68 % of control (endpoint: mean tumor weight, dose: 6.25 mg/kg/injection, schedule: Q01DX011 (sc), vehicle: steriod suspending solution, higher = larger tumour); 65 % of control (endpoint: mean tumor weight, dose: 12.5 mg/kg/injection, schedule: Q01DX011 (sc), vehicle: steriod suspending solution, higher = larger tumour); 33 % of control under setting [5].
On to `N=C(N)Sc1cc(O)ccc1O`, for which the T/C by setting is: (endpoint: median survival time, dose: 12.5 mg/kg/injection, schedule: Q01DX009 (ip), vehicle: other, higher = longer survival) 102 % of control; (endpoint: median survival time, dose: 18.75 mg/kg/injection, schedule: Q01DX009 (ip), vehicle: saline, higher = longer survival) 120 % of control; (endpoint: median survival time, dose: 25.0 mg/kg/injection, schedule: Q01DX009 (ip), vehicle: other, higher = longer survival) 103 % of control; (endpoint: median survival time, dose: 37.5 mg/kg/injection, schedule: Q01DX009 (ip), vehicle: saline, higher = longer survival) 92 % of control; (endpoint: median survival time, dose: 50.0 mg/kg/injection, schedule: Q01DX009 (ip), vehicle: other, higher = longer survival) 93 % of control; (endpoint: median survival time, dose: 100.0 mg/kg/injection, schedule: Q01DX009 (ip), vehicle: other, higher = longer survival) 100 % of control. Further, the T/C is, setting by setting: (endpoint: median survival time, dose: 200.0 mg/kg/injection, schedule: Q01DX009 (ip), vehicle: other, higher = longer survival) 93 % of control; (endpoint: median survival time, dose: 300.0 mg/kg/injection, schedule: Q01DX009 (ip), vehicle: saline, higher = longer survival) 91 % of control.
For `O=C1OC(C(O)CO)C(O)=C1O` (configuration not stated), the T/C reads like this: (endpoint: median survival time, dose: 1.0 mg/kg/injection, schedule: Q02DX009 (ip), vehicle: saline, higher = longer survival) 113 % of control; (endpoint: median survival time, dose: 1000.0 mg/kg/injection, schedule: Q02DX009 (ip), vehicle: saline, higher = longer survival) 87 % of control; (endpoint: median survival time, dose: 10000.0 mg/kg/injection, schedule: Q02DX009 (ip), vehicle: saline, higher = longer survival) 10 % of control.

The values are drawn from PubChem BioAssay AID270 (DTP/NCI, 2004).
